Columns and labels:
GABAA γ1 receptor [1] = biological target: GABAA γ1 receptor (Mus musculus (Mouse), UniProt Q9R0Y8); experiment: In vitro autoradiography, coronal brain sections of GABAA γ1 knockout and wild-type mice; type: binding; conditions: 0.3 nM radioligand, 30 minutes room temperature, knockout vs wild-type mouse brain sections
Procedure: Autoradiographical analyses of [^3H]-(I) and [^3H]-(II) were performed with coronal brain sections from GABAA γ1 receptor knockout mice (C57BL/6NTac-Gabrg1) and wild-type controls. Tissue sections (10 μm) were cut in a cryostat, thaw-mounted on microscope glass slides and incubated in incubation buffer (50 mM Tris-HCl, pH 7.4) containing 0.3 nM radioligand (molar activity 83 Ci/mmol and 81 Ci/mmol for [^3H]-(II) and [^3H]-(I), respectively) at room temperature for 30 minutes. After incubation, all sections were rinsed three times in ice-cold wash buffer (50 mM Tris-HCl, pH 7.4) for 10 minutes and dipped three times in distilled water at 4° C. Slide-mounted brain sections were dried in a ventilated fridge for at least 2 hours and exposed to a Fuji Imaging Plate for 5 days. The imaging plate was scanned at a resolution of 25 μm in a Fujifilm high-resolution plate scanner. Visualization and quantification of autoradiographies was performed by the MCID™ image analysis program.

h-GABA-A α2β2γ1 receptor = h-GABA-A α2β2γ1 receptor (Homo sapiens (Human), UniProt P47869+Q8N1C3); experiment: Xenopus oocyte two-electrode voltage clamp electrophysiology, modulation of GABA EC20 current; type: cell-based; conditions: for Potentiation of GABA-induced current in α2β2γ1 expressing oocytes: reference PAMs, GABA EC20; for Efficacy (GABA)%: % modulation of GABA EC20 = 100*(Fold increase−1), compound at 30-fold Ki α2β2γ1
Procedure: Xenopus laevis oocytes at maturation stages V-VI were used for the expression of cloned mRNA encoding GABAA receptor subunits. Oocytes ready for RNA micro-injection were bought from Ecocyte, Castrop-Rauxel, Germany and stored in modified Barth's medium (composition in mM: NaCl 88, KCl 1, NaHCO3 2.4, HEPES 10, MgSO4 0.82, CaNO3 0.33, CaCl2 0.33, pH=7.5) at 20° C. until the experiment.
Oocytes were plated in 96-well plates for microinjection using the Roboinject automated instrument (MultiChannelSystems, Reutlingen, Germany). Approximately 50 nL of an aqueous solution containing the RNA transcripts for the subunits of the desired GABAA receptor subtype was injected into each oocyte. […] Oocytes were kept in modified Barth's medium (composition in mM: NaCl 88, KCl 1, NaHCO3 […], HEPES 10, MgSO4 0.82, CaNO3 0.33, CaCl2 0.33, pH=7.5) at 20° C. until the experiment.
Electrophysiological experiments were performed using the Roboocyte instrument (MultiChannelSystems, Reutlingen, Germany) on days 3 to 5 after the micro-injection of mRNA. During the experiment the oocytes were constantly superfused by a solution containing (in mM) NaCl 90, KCl 1, HEPES 5, MgCl2 1, CaCl2 1 (pH 7.4). Oocytes were impaled by two glass microelectrodes (resistance: 0.5-0.8 MΩ) which were filled with a solution containing KCl 1M+K-acetate 1.5 M and voltage-clamped to −80 mV. The recordings were performed at room temperature using the Roboocyte two-electrode voltage clamp system (Multichannelsystem). After an initial equilibration period of 1.5 min GABA was added for 1.5 min at a concentration evoking approximately 20% of a maximal current response (EC20). After another rest interval of 2.5 min GABA was again added evoking a response of similar amplitude and shape. […] Current traces were recorded at a digitization rate of 10 Hz during and shortly before and after the GABA application.
Each compound and concentration was tested on at least 3 oocytes. Different oocytes were used for different compound concentrations.
For the analysis, the digitized current traces of the first and second GABA response were superimposed and, if necessary, rescaled to equal maximal amplitudes. The ratio between the two responses during the time interval of test compound application was calculated point by point. The extremum of the resulting “ratio trace” was taken as the efficacy (“Fold increase”) of the compound expressed as “% modulation of GABA EC20” (100*(Fold increase−1)).

GABAA γ1 receptor [2] = experiment: In vivo PET scans in baboons, regional time-activity curves; design: species or system papio anubis olive brown baboons; conditions: baboon, intravenous bolus approx. 700 MBq, 90 min scan
Procedure: PET imaging experiments were performed in male papio anubis olive brown baboons to examine the characteristics of [^11C]-(I) and [^11C]-(II) in vivo. The final radiotracer product was radiochemically pure (>95%) up to 40 min post its end of synthesis with an average final calculated specific activity of >555 GBq/μmol. The PET camera used was the Siemens HRRT with an in-plane field-of-view (FOV) of 30 cm and an axial FOV of 24 cm. Each dynamic PET scan started with an intravenous bolus injection of the radiotracer (approx. 700 MBq) and continued for 90 min in a 3D list mode. A set of volumes of interest (VOIs) for 16 brain regions were defined on MRIs of individual animals referring to a standard VOI template. VOIs were transferred to PET space using the coregistration parameters to generate time-activity curves (TACs) of brain regions.

[3] = biological target: human GABAA α1β3γ2 receptor (Homo sapiens (Human), UniProt P14867+P18507); experiment: Binding assay, competition for [^3H]Flumazenil, HEK293F cells; conditions: for γ2/γ1 Selectivity Ratio: Ki α1β3γ2 (nM)/Ki α2β2γ1 (nM)
Procedure: The affinity of compounds at GABAA γ2 subunit-containing receptors was measured by competition for [^3H]Flumazenil (81.1 Ci/mmol; Roche) binding to HEK293F cells expressing human (transiently transfected) receptors of composition α1β3γ2.
Harvested pellets from HEK293F cells expressing the different GABAA γ2 receptor subtypes were resuspended in Mannitol Buffer pH 7.2-7.4 and processed as described above for the cells expressing the GABAA γ1 subunit-containing receptors.
Assays were incubated to equilibrium for 1 hour at 4° C. and harvested onto GF/C uni-filters (Packard) by filtration using a Packard harvester and washing with ice-cold wash buffer (50 mM Tris; pH 7.5). After anhydrousing, filter-retained radioactivity was detected by liquid scintillation counting. Ki values were calculated using Excel-Fit (Microsoft) and are the means of two determinations.

[4] = biological target: human GABAA α2β2γ1 receptor (Homo sapiens (Human), UniProt P47869+Q8N1C3); experiment: Binding assay, competition for [^3H]RO7239181, membranes from HEK293F cells
Procedure: (§1) Harvested pellets from HEK293F cells expressing the different GABAA receptor subtypes were resuspended in Mannitol Buffer pH 7.2-7.4 (Mannitol 0.29M, Triethylamine 10 mM, Acetic acid 10 mM, EDTA 1 mM plus protease inhibitors (20 tablets Complete, Roche Diagnostics Cat. No. 05 056 489 001 per liter)), washed two times and then resuspended at 1:10 to 1:15 dilution in the same buffer. Cell disruption was performed by stirring the suspension in a Parr vessel #4637 at 435 psi for 15 minutes, and then the suspensions were centrifuged at 1000×g for 15 minutes at 4° C. (Beckman Avanti J-HC; rotor JS-4.2). The supernatant (S1) was transferred in a 2 l Schott flask and the pellet (P1) was resuspended with Mannitol Buffer up to 175 ml. The resuspended pellet was transferred into a 250 ml Corning centrifugal beaker and centrifuged at 1500×g for 10 minutes at 4° C. (Beckman Avanti J-HC; rotor JS-4.2). The supernatant (S1) was then transferred in the 2 l Schott flask and the pellet was discarded. […] The P2 and P3 protein concentration was determined with the BIORAD Standard assay method with bovine serum albumin as standard and measured on the NANO-Drop 1000. […]
(§2) Membrane homogenates were resuspended and polytronised (Polytron PT1200E Kinematica AG) in Potassium Phosphate 10 mM, KCl 100 mM binding buffer at pH 7.4 to a final assay concentration determined with a previous experiment. […]

[5] = biological target: human GABAA α1β2γ1 receptor (Homo sapiens (Human), UniProt P14867+Q8N1C3); experiment: as above
Procedure: as §1, §2

Sequence of GABAA γ1 receptor (Mus musculus (Mouse), UniProt Q9R0Y8) (Q9R0Y8 36-465 limits assumed): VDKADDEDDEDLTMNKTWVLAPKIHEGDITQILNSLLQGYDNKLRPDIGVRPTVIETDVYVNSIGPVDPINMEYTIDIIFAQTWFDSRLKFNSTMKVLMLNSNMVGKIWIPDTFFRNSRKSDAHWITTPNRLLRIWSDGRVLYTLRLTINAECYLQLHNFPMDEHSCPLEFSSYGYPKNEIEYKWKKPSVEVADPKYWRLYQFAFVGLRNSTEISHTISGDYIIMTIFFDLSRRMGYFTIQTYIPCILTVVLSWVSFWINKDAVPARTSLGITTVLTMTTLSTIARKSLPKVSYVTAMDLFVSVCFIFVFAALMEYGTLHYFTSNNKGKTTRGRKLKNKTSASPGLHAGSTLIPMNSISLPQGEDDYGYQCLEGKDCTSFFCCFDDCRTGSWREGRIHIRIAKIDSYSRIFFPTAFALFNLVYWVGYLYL

## [3H]C([3H])([3H])N1C(=O)CN=C(c2cc(O)ccc2F)c2c1ccc(C)c2Cl [[^3H]-(II), 6-Chloro-5-(2-fluoro-5-hydroxy-phenyl)-7-methyl-1-([^3H3]methyl)-3H-1,4-benzodiazepin-2-one]
GABAA γ1 receptor [1]
  Specific binding in the amygdala: 97%

## Cc1ncc2n1-c1ccc(Cl)cc1C(c1ccccc1F)=NC2 [Midazolam]
h-GABA-A α2β2γ1 receptor
  Potentiation of GABA-induced current in α2β2γ1 expressing oocytes: ~60%

## CN1C(=O)CN=C(c2ccccc2F)c2cc([N+](=O)[O-])ccc21 [Flunitrazepam]
h-GABA-A α2β2γ1 receptor
  Potentiation of GABA-induced current in α2β2γ1 expressing oocytes: ~60%

## [11CH3]N1C(=O)CN=C(c2cc(O)ccc2F)c2c1ccc(Cl)c2Cl [[^11C]-(I), [^11C]6,7-Dichloro-5-(2-fluoro-5-hydroxy-phenyl)-1-methyl-3H-1,4-benzodiazepin-2-one]
GABAA γ1 receptor [2]
  Brain clearance: Slower clearance

## Cc1ccc2c(c1Cl)C(c1cc(O)ccc1F)=NCC(=O)N2C [Example 2, 6-chloro-5-(2-fluoro-5-hydroxy-phenyl)-1,7-dimethyl-3H-1,4-benzodiazepin-2-one]
[3]
  γ2/γ1 Selectivity Ratio: 39.0
h-GABA-A α2β2γ1 receptor
  Efficacy (GABA)%: 70%

## Cc1ccc2c(c1Cl)C(c1cc(O)ccc1F)=NCC(=O)N2[11CH3] [[^11C]-(II), [^11C]6-Chloro-5-(2-fluoro-5-hydroxy-phenyl)-1,7-dimethyl-3H-1,4-benzodiazepin-2-one]
GABAA γ1 receptor [2]; comparison of tracers
  Time of brain uptake peaks: earlier peaks than [^11C]-(I)

## CN1C(=O)CN=C(c2cc(O)ccc2Cl)c2cc(Cl)ccc21 [RE-A, reference compound]
[4]
  Ki: 2.79 nM
[5]
  Ki: 6.84 nM
[3]
  Ki: 1.5 nM
  γ2/γ1 Selectivity Ratio: 0.54

## [3H]C([3H])([3H])N1C(=O)CN=C(c2cc(O)ccc2F)c2c1ccc(Cl)c2Cl [[^3H]-(I), 6,7-Dichloro-5-(2-fluoro-5-hydroxy-phenyl)-1-([^3H3]methyl)-3H-1,4-benzodiazepin-2-one]
GABAA γ1 receptor [1]
  Specific binding in the amygdala: 65%

## CN1C(=O)CN=C(c2cc(O)ccc2F)c2c1ccc(Cl)c2Cl [Example 1, 6,7-dichloro-5-(2-fluoro-5-hydroxy-phenyl)-1-methyl-3H-1,4-benzodiazepin-2-one]
[3]
  γ2/γ1 Selectivity Ratio: 12.7
h-GABA-A α2β2γ1 receptor
  Efficacy (GABA)%: 90%

## Cc1nnc2n1-c1ccc(Cl)cc1C(c1ccccc1Cl)=NC2 [Triazolam]
h-GABA-A α2β2γ1 receptor
  Potentiation of GABA-induced current in α2β2γ1 expressing oocytes: ~60%

From patent publication US20250049967A1, “PET TRACERS FOR V[…] GAMMA1 RECEPTORS” (Hoffmann-La Roche Inc., priority 2022, published 2025)
